Experimental data from patent publication US20080220056A1, “Treatment for liver disease” (UNIVERSITY OF SOUTHAMPTON, priority 2002, published 2008).
Square brackets hold non-standard residues; d marks the D form. Peptide text beside a SMILES is read from it. * marks the point of attachment. Nle = CCCC[C@H](N)C(=O)O; Cbz = O=C(OCc1ccccc1)*; CH2F = FC*

How the values were obtained:
Format in all cases: cell-based
rat hepatocytes [1] = test: Rat hepatocyte viability by attachment and trypan blue exclusion; conditions: 200 μmol/L, four hours
Protocol: Rat hepatocytes were isolated by collagenase perfusion essentially as previously described. (Harvey et al., Biochemical J., (1998) 331:273-281). Hepatocytes were cultured as outlined for hepatic stellate cells except that they were initially seeded onto collagen coated plates in William's medium E supplemented with 10% fetal calf serum and 1 μg/mL insulin for the first 2 hours.
(§1) Cells were treated with gliotoxin dissolved in DMSO vehicle (added to medium from a 2000-fold molar concentrated stock). Control cells received DMSO vehicle only (i.e., 0.05% vol/vol). All other additions to culture medium were made from concentrated stocks dissolved in DMSO or by direct addition to culture medium. Protein contents of wells were determined using the Lowry assay (Lowry et al., J. Biol. Chem., (1951)193: 265-275).
The effect of various compounds on cell viability and attachment was determined. Viability of rat hepatocytes as judged by attachment and 0.1% (wt/vol) trypan blue exclusion after four hours treatment with: […]

rat hepatocytes [2] = test: DNA laddering in rat hepatocytes; conditions: four hours; 50 μmol/L gliotoxin, 200 μmol/L chlorpromazine, 200 μmol/L methapyrilene, 10 ng/mL TNF-α with cycloheximide
Protocol: (§2) Hepatic stellate cells cultured in 35-mm diameter dishes (Greiner) were harvested, pelleted by centrifugation and DNA fragmentation determined as outlined elsewhere (Elsharkawy et al., Hepatology (1999) 30:761-769). Propidium Iodide Flow-Activated Cell Sorting Analysis Detached cells were pelleted by centrifugation, washed in PBS, and resuspended in HYPO buffer (0.1% wt/vol) Na3Citrate and 0.1% (wt/vol) Triton™ X-100 containing […] propidium iodide and incubated for 1 hour. The cells were then analyzed by fluorescence-activated cell sorter (FACS) with a Becton Dickinson (San Jose, Calif.) FACScan instrument using a 488 nm excitation wavelength with a band pass filter set at 530 nm. Attached cells were scraped in HYPO buffer after washing cells with PBS.
DNA laddering was also used to compare the effect of gliotoxin, chlorpromazine, methapyrilene and also the combination of TNF-α with cycloheximide on hepatocytes and hepatic stellate cells.

[3] = system: rat hepatic stellate cells; test: Low molecular weight DNA fragmentation (nucleosomal ladder) in rat hepatic stellate cells; conditions: four hours; for effect on gliotoxin-induced cleavage of DNA to a nucleosomal ladder: with 1.5 μmol/L gliotoxin, PDTC 300 μmol/L, tamoxifen 100 μmol/L, m-IBG 250 (mmol/L in the source), cyclosporin 10 μmol/L, quin-2-am 50 μmol/L
Protocol: as §2
The effect of gliotoxin on the cleavage of DNA to a nucleosomal ladder was examined because this phenomenon is characteristic of apoptosis. Culture activated (14-day) rat hepatic stellate cells in six well plates were treated with either 0.05% (vol/vol) DMSO for four hours or 1.5 μmol/L gliotoxin for zero hours, half an hour, one hour, two hours or four hours. At each time point, both detached and attached cells were harvested together and low molecular weight DNA (20,000 g supernatant) fragmentation determined as outlined in the materials and methods section. At least three separate experiments were performed. 1 kilobase DNA ladder (Promega) was used as a molecular weight marker.
The effect of various compounds on DNA laddering was then determined. Culture-activated (14-day) rat hepatic stellate cells in six-well plates were treated with:
After fours hours of treatment, DNA fragmentation was determined.
Culture activated (14 day) rat hepatic stellate cells in six well plates were treated with: • (a) 0.05% (vol/vol) DMSO; • (b) 1.5 μmol/L gliotoxin; • (c) 1.5 μmol/L gliotoxin with 100 μmol/L tamoxifen; • (d) 1.5 μmol/L gliotoxin with […] actinomycin d; • (e) 1.5 μmol/L gliotoxin with 10 μmol/L cycloheximide; • (f) 1.5 μmol/L gliotoxin with 10 μmol/L cyclosporin; • (g) 1.5 μmol/L gliotoxin with […] m-iodobenzylguanidine; • (h) 1.5 μmol/L gliotoxin with 50 μmol/L quin-2-am; • (i) 50 μmol/L guin-2-am alone; • (j) 250 μmol/L m-iodobenzylguanidine; • (k) 10 μmol/L cyclosporin; • (l) 10 μmol/L cycloheximide; • (m) 1 μg/ml actinomycin d; or • (n) 100 μmol/L tamoxifen.
After four hours of treatment, DNA fragmentation was determined as outlined in Materials and Methods.

[4] = system: rat hepatic stellate cells; test: Morphology and detachment of culture-activated rat hepatic stellate cells (light microscopy); conditions: rat HSC; for effect on morphologic alterations / detachment caused by gliotoxin: with 1.5 μmol/L gliotoxin, Z-VAD-FMK 100 μmol/L, PDTC 300 μmol/L, tamoxifen 100 μmol/L, m-IBG 250 (mmol/L in the source), quin-2-am 50 μmol/L
Excerpt: Rat hepatic stellate cells (HSCs) were isolated by pronase/collagenase perfusion and purified by isopycnic density centrifugation in Opti-prep™ (Nycomed, Amersham, England) and elutriation essentially as previously described (Bahr et al., Hepatology (1999) 29:839-848). Human hepatic stellate cells were isolated from discarded resected liver via a similar protocol (Trim et al., J. Biol. Chem., (2000) 275:6657-6663). The use of human liver tissue for scientific investigation was approved by the UK South and West Local Research Ethics Committee and was subject to patient consent.
It has been shown recently that liver myofibroblasts may contribute to liver fibrogenesis and that liver myofibroblasts may have the potential to contaminate passaged hepatic stellate cell cultures (Knittel et al., Gastronenterology, (1999) 117:1205-1221). In this study, only primary cultures of hepatic stellate cells were used, which were desmin and glial fibrillary acid protein positive (markers shown to be expressed in hepatic stellate cells, but not liver myofibroblasts—Knittel et al., supra).
as §1
Culture activated rat (14 day) and human (24 day) hepatic stellate cells were treated with DMSO solvent control or 1.5 μMol/L gliotoxin. […] Hepatic stellate cells changed from a flattened fibroblastic phenotype with distinct cell-cell interfaces to a substratum detached, rounded, and blebbed morphology.

[5] = system: caspase 3 activity in rat hepatic stellate cells; test: Caspase 3 (Ac-DEVD-pNA cleavage) activity in rat hepatic stellate cells; conditions: 20 μmol/L Z-VAD-FMK with 1.5 μmol/L gliotoxin, three hours
Protocol: Hepatic stellate cells cultured in 100 mm diameter dishes (Greiner, Frickenhausen, Germany) were harvested and pelleted by centrifugation. The medium supernatant was discarded and the cell pellet was washed in 1 mL of ice-cooled phosphate buffered saline (PBS). Caspase 3 (DEVDase) activity was determined using a colorimetric CaspACE kit (Promega, Southampton, England) using the manufacturer's instructions.
Caspase 3 (Ac-DEVD-pNA cleavage) activity was then examined in control and gliotoxin-treated hepatic stellate cells. Culture activated rat hepatic stellate cells (14 days) in 100 mm diameter plates were treated with 0.05% (vol/vol) DMSO, 1.5 μmol/L gliotoxin, 20 μmol/L Z-VAD-FMK or 200 μmol/L chlorpromazine for three hours. The cells were then harvested for examination of caspase 3 activity as outlined in the materials and methods sections.

[6] = system: NF-kB DNA binding activity; test: Electromobility shift assay for NF-kB DNA binding activity in rat hepatic stellate cells; conditions: activated rat HSC; for TNF-α-inducible NF-kB DNA binding activity: 10 ng/mL TNF-α, same concentrations as for constitutive activity; for constitutive NF-kB DNA binding activity: gliotoxin 1.5 μmol/L, N-acetyl cysteine 5 mM, calpain inhibitor 1 50 μM, dexamethasone 0.5 μm, pentoxyfilline 3.6 mM
Protocol: Crude high salt extractable nuclear protein was prepared from activated hepatic stellate cells for analysis of NF-kB DNA binding activity essentially as described (Elsharkawy et al., supra), aliquoted and stored at −80° C. until required. Extract protein concentrations were determined using the Lowry colorimetric assay (Lowry et al., supra) with bovine serum albumin as standard. A double stranded 5′ end labeled radiolabeled oligonucleotide [sense 5′-[…]-[…] (SEQ ID NO:1)] containing a consensus NF-kB DNA binding site as underlined (Baldwin et al., Annu. Rev. Immunol., (1996) 14:649-681) was used to determine NFkB DNA binding activity in crude nuclear extracts (Elsharkawy et al., supra).
The effect of gliotoxin on NF-kB activity in hepatic stellate cells was investigated. Culture-activated (14-day) rat hepatic stellate cells were incubated in the presence or absence of 10 ng/mL TNF-α fifteen minutes after addition of:
After a further 30 minutes, and before any significant morphologic changes, cells were washed with ice-cooled PBS, nuclear extracts prepared, and NF-kB DNA binding activity assessed by gel shift analysis. […] Each lane contained […] of protein and the results were the same for at least three separate experiments.

SMILES | effect on gliotoxin-induced cleavage of DNA to a nucleosomal ladder [3] | effect on morphologic alterations / detachment caused by gliotoxin [4] | TNF-α-inducible NF-kB DNA binding activity [6] | constitutive NF-kB DNA binding activity [6] | further results
CN(C)CCN(Cc1cccs1)c1ccccn1 [methapyrilene] |  |  |  |  | hepatocytes that do not exclude trypan blue, compared with 50 μmol/L gliotoxin (rat hepatocytes [1]): a level similar; cleavage of hepatocyte DNA to a nucleosomal ladder (rat hepatocytes [2]): only hepatocytes treated with TNF-α and cycloheximide cleaved their DNA to a nucleosomal ladder
N=C(N)NCc1cccc(I)c1 [m-iodobenzylguanidine] | prevented the cleavage of DNA to a nucleosomal ladder | did not prevent the detachment of hepatic stellate cells from the substratum |  |  | 
COC(=O)C[C@H](NC(=O)[C@H](C)NC(=O)[C@@H](NC(=O)OCc1ccccc1)C(C)C)C(=O)CF [Z-VAD-FMK, benzyloxycarbonyl-Val-Ala-Asp-fluoromethylketone] (Cbz-Val-Ala-Asp(OMe)-CH2F) |  | did not prevent the morphologic alterations caused by gliotoxin |  |  | effect on gliotoxin-induced caspase 3 activity [5]: inhibited by cotreatment; inhibition of gliotoxin-induced nucleosomal ladder ([3]; Z-VAD-FMK 1 μmol/L with 1.5 μmol/L gliotoxin): substantial inhibition; inhibition of gliotoxin-induced nucleosomal ladder ([3]; Z-VAD-FMK 100 and 10 (m/L printed) with 1.5 μmol/L gliotoxin): inhibited completely
CC(=O)N[C@@H](CS)C(=O)O [N-acetyl cysteine] |  |  | little effect | little effect | 
CC(=O)CCCCn1c(=O)c2c(ncn2C)n(C)c1=O [pentoxyfilline] |  |  | little effect | little effect | 
CC/C(=C(\c1ccccc1)c1ccc(OCCN(C)C)cc1)c1ccccc1 [tamoxifen] | prevented the cleavage of DNA to a nucleosomal ladder | did not prevent the detachment of hepatic stellate cells from the substratum |  |  | 
CCCC[C@@H](C=O)NC(=O)[C@H](CC(C)C)NC(=O)[C@H](CC(C)C)NC(C)=O [Calpain inhibitor 1] (Ac-Leu-Leu-[Nle]-aldehyde) |  |  | inhibited the formation and altered the mobilities | inhibited the formation and altered the mobilities | apoptosis judged by morphologic and biochemical criteria (caspase 3 induction, nucleosomal ladder) ([4]; 50 μM calpain inhibitor 1): did not result in the apoptosis of rat hepatic stellate cells
COc1cc(N(CC(=O)OCOC(C)=O)CC(=O)OCOC(C)=O)c2nc(COc3cc(C)ccc3N(CC(=O)OCOC(C)=O)CC(=O)OCOC(C)=O)ccc2c1 [quin-2AM] | blocks DNA cleavage | without preventing cell detachment |  |  | 
